Values of other authors as cited in patent US8362253B2, “Solid forms of N-[2,4-bis(1,1-dimethylethyl)-5-hydroxyphenyl]-1,4-dihydro-4-oxoquinoline-3-carboxamide” (Vertex Pharmaceutical Incorporated, priority 2007, dated 2013).

Tested on: cystic fibrosis transmembrane conductance regulator (CFTR) protein
Settings: cells from patients with CF, CFTR present on the cell surface; background statement

CC(C)(C)c1cc(C(C)(C)C)c(NC(=O)c2c[nH]c3ccccc3c2=O)cc1O [Compound 1, N-[2,4-bis(1,1-dimethylethyl)-5-hydroxyphenyl]-1,4-dihydro-4-oxoquinoline-3-carboxamide]
Function of defective CFTR channels: restored the function of defective CFTR channels
